Reference: the NIST ThermoML archive (doi:10.1021/acs.jced.8b00524)
Numbers after ± are expanded uncertainties.

What was measured:
[1] = 100 kPa, Liquid; for viscosity: Concentric cylinders viscometry; for mass density: Vibrating tube method
[2] = xn = mol fraction of the nth substance listed; details: 100 kPa, Liquid; for viscosity: Concentric cylinders viscometry; for mass density: Vibrating tube method

## CCCCCCO [hexan-1-ol]
[1]; 293.15 K
  viscosity: 5.37 ± 0.27 mPa·s
  mass density: 818.7 ± 10 kg/m3
[1]; 298.15 K
  viscosity: 4.58 ± 0.23 mPa·s
  mass density: 815.1 ± 10 kg/m3
[1]; 303.15 K
  viscosity: 3.94 ± 0.2 mPa·s
  mass density: 811.5 ± 10 kg/m3
[1]; 308.15 K
  viscosity: 3.4 ± 0.17 mPa·s
  mass density: 807.9 ± 10 kg/m3
[1]; 313.15 K
  viscosity: 2.95 ± 0.15 mPa·s
  mass density: 804.2 ± 10 kg/m3
[1]; 318.15 K
  viscosity: 2.58 ± 0.13 mPa·s
  mass density: 800.6 ± 10 kg/m3
[1]; 323.15 K
  viscosity: 2.26 ± 0.11 mPa·s
  mass density: 796.8 ± 10 kg/m3

## CCCCCCCO [heptan-1-ol]
[1]; 293.15 K
  viscosity: 7.03 ± 0.35 mPa·s
  mass density: 822.2 ± 10 kg/m3
[1]; 298.15 K
  viscosity: 5.92 ± 0.3 mPa·s
  mass density: 818.7 ± 10 kg/m3
[1]; 303.15 K
  viscosity: 5.03 ± 0.25 mPa·s
  mass density: 815.2 ± 10 kg/m3
[1]; 308.15 K
  viscosity: 4.3 ± 0.22 mPa·s
  mass density: 811.6 ± 10 kg/m3
[1]; 313.15 K
  viscosity: 3.71 ± 0.19 mPa·s
  mass density: 808 ± 10 kg/m3
[1]; 318.15 K
  viscosity: 3.21 ± 0.16 mPa·s
  mass density: 804.4 ± 10 kg/m3
[1]; 323.15 K
  viscosity: 2.79 ± 0.14 mPa·s
  mass density: 800.7 ± 10 kg/m3

## CCCCOC(C)=O [butyl ethanoate] + CCCCCCCCCO
[2]; 293.15 K, x1 = 1
  viscosity: 0.732 ± 0.037 mPa·s
  mass density: 881.1 ± 10 kg/m3
[2]; 298.15 K, x1 = 1
  viscosity: 0.677 ± 0.034 mPa·s
  mass density: 876 ± 10 kg/m3
[2]; 303.15 K, x1 = 1
  viscosity: 0.628 ± 0.032 mPa·s
  mass density: 870.9 ± 10 kg/m3
[2]; 308.15 K, x1 = 1
  viscosity: 0.585 ± 0.03 mPa·s
  mass density: 865.7 ± 10 kg/m3
[2]; 313.15 K, x1 = 1
  viscosity: 0.546 ± 0.028 mPa·s
  mass density: 860.5 ± 10 kg/m3
[2]; 318.15 K, x1 = 1
  viscosity: 0.512 ± 0.026 mPa·s
  mass density: 855.3 ± 10 kg/m3
[2]; 323.15 K, x1 = 1
  viscosity: 0.485 ± 0.025 mPa·s
  mass density: 850.1 ± 10 kg/m3

## CCCCCCCCO [octan-1-ol] + CCCCOC(C)=O
[2]; 293.15 K, x2 = 0
  viscosity: 9.13 ± 0.46 mPa·s
  mass density: 824.9 ± 10 kg/m3
[2]; 298.15 K, x2 = 0
  viscosity: 7.62 ± 0.38 mPa·s
  mass density: 821.4 ± 10 kg/m3
[2]; 303.15 K, x2 = 0
  viscosity: 6.41 ± 0.32 mPa·s
  mass density: 817.9 ± 10 kg/m3
[2]; 308.15 K, x2 = 0
  viscosity: 5.43 ± 0.27 mPa·s
  mass density: 814.4 ± 10 kg/m3
[2]; 313.15 K, x2 = 0
  viscosity: 4.63 ± 0.23 mPa·s
  mass density: 810.9 ± 10 kg/m3
[2]; 318.15 K, x2 = 0
  viscosity: 3.98 ± 0.2 mPa·s
  mass density: 807.3 ± 10 kg/m3
[2]; 323.15 K, x2 = 0
  viscosity: 3.44 ± 0.17 mPa·s
  mass density: 803.7 ± 10 kg/m3

## CCCCOC(C)=O [butyl ethanoate]
[1]; 293.15 K
  viscosity: 0.732 ± 0.037 mPa·s
  mass density: 881.1 ± 10 kg/m3
[1]; 298.15 K
  viscosity: 0.677 ± 0.034 mPa·s
  mass density: 876 ± 10 kg/m3
[1]; 303.15 K
  viscosity: 0.628 ± 0.032 mPa·s
  mass density: 870.9 ± 10 kg/m3
[1]; 308.15 K
  viscosity: 0.585 ± 0.03 mPa·s
  mass density: 865.7 ± 10 kg/m3
[1]; 313.15 K
  viscosity: 0.546 ± 0.028 mPa·s
  mass density: 860.5 ± 10 kg/m3
[1]; 318.15 K
  viscosity: 0.512 ± 0.026 mPa·s
  mass density: 855.3 ± 10 kg/m3
[1]; 323.15 K
  viscosity: 0.485 ± 0.025 mPa·s
  mass density: 850.1 ± 10 kg/m3
